Experimental data published in patent publication US9156840B2, “D2 antagonists, methods of synthesis and methods of use” (ALTOS THERAPEUTICS, LLC, priority 2010, dated 2015).
Counter-ions that a name gives are not always drawn.

Biological target: T1, human D2 receptor (Homo sapiens, UniProt P14416)
T1 construct: expressed in transfected cells; cDNA from Origene clones TC308892 and SC123573
Experiment: D2 receptor radioligand binding assay (membranes of HEK-293 cells expressing human D2 receptor)
Conditions: radioligand displacement, HEK293 membranes, 37° C. for 120 minutes; read-out: Affinity Score (IC50 values for D2 on a scale of 1 through 5)
Method in brief: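 Membranes from HEK-293 cells stably expressing human D2S or D2L, 10 μg protein per well. Compounds incubated with radioligand (KD 0.09 nM) in Tris buffer pH 7.4 with 0.025% BSA, 120 minutes at 37° C. Filtration and scintillation counting; Ki by Cheng–Prusoff.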

T1 sequence (P14416 whole entry): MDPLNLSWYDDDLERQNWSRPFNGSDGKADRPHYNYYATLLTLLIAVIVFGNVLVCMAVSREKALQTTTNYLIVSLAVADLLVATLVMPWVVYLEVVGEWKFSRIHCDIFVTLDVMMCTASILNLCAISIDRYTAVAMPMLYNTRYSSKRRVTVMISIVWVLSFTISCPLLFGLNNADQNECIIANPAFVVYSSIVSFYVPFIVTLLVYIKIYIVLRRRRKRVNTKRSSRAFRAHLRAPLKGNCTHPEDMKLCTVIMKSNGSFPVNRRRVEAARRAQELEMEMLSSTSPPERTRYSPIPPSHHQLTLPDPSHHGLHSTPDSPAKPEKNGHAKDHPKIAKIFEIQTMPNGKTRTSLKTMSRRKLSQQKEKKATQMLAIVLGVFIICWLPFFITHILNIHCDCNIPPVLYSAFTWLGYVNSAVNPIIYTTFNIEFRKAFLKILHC

O=C(CCCN1CCC2(CC1)C(=O)N(Cc1ccccc1C(=O)O)CN2C1CCCCC1)c1ccccc1 [Compound 218, 2-((1-Cyclohexyl-4-oxo-8-(4-oxo-4-phenylbutyl)-1,3,8-triazaspiro[4.5]decan-3-yl)methyl)benzoic acid, hydrochloride]
IC50: < 10 nM
